Source: publication PMC11945475, “Nasal Administration of a Nanoemulsion Based on Methyl Ferulate and Eugenol Encapsulated in Chitosan Oleate: Uptake Studies in the Central Nervous System” (Pharmaceutics, 2025)
Like-named read-outs stand apart in the source and are kept apart here.

What was measured:
[1] = in vivo; details: rat; for AUC / Cmax / Tmax: nasal CS-OA NE, Fer-Me 0.4 mg/kg and eugenol 0.8 mg/kg
Protocol: (§1) Fer-Me and eugenol were nasally co-administered as loaded in CS-OA NE to evaluate their concentration–time profiles in male Sprague-Dawley rats’ (200–250 g body weight; Charles River laboratories, Calco, Italy) bloodstream and CSF. The results were compared with those obtained by the rat intravenous administrations of Fer-Me (10 mg/kg; present study), and 20 mg/kg of eugenol. The sample size (4 rats/group) has been chosen based on our previous studies. The experimental procedures were approved by the Italian Ministry of Health and were performed in accordance with the European Communities Council Directive of September 2010 (2010/63/EU). According to the ARRIVE guidelines, all possible efforts were made to minimize animal pain and discomfort and to reduce the number of experimental subjects.
Fer-Me and eugenol were nasally co-administered to rats at the doses of 0.4 mg/kg (about 0.1 mg/rat) and 0.8 mg/kg (about 0.2 mg/rat), respectively, as encapsulated in CS-OA NE (Fer-Me content about 1 mg/mL; eugenol content about 2 mg/mL). A group of four rats anesthetized and laid on their backs (weighing approximately 250 g) received CS-OA NE after being fasted for 12 h. In particular, each rat received 50 μL of CS-OA NE formulation in each nostril. The nasal administration was carried out using a semiautomatic pipette connected to a short polyethylene tubing, which was inserted about 0.6 to 0.7 cm into each nostril. Following the administration, blood samples (100 μL) were collected at predetermined time points, along with CSF samples (30 μL). The blood samples (n = 4 for timepoint) were immediately mixed with 200 μL of ice-cold CH3CN and then 100 μL of internal standard (100 μM BNZ in CH3CN) was added. These samples were centrifuged at 12,500× g for 5 min. About 300 μL of the supernatant was then withdrawn and centrifuged again. Finally, 10 μL of the resultant sample was analyzed using HPLC for the quantification of Fer-Me and eugenol.
The HPLC apparatus was the same used for the uptake experiments with RPMI 2650 cells (Section 2.3.3). […] Calibration curves of peak areas versus concentration in the range 0.5 to 10 μM for Fer-Me (0.10 to 2.08 μg/mL), and eugenol (0.08 to 1.64 μg/mL), obtained dissolving the compounds in simulated CSF, were linear (n = 8, r ≥ 0.996, p < 0.0001). […] Therefore, the concentrations of these compounds determined in whole blood were referred to as the peak area ratio with respect to the internal standard BNZ. Eight different concentrations in rat whole blood at 4 °C, ranging from 0.5 to 50 μM for Fer-Me (0.10 to 10.41 μg/mL) and eugenol (0.08 to 8.21 μg/mL) were used to generate calibration curves in this biological system, which were linear (n = 8, r ≥ 0.990, p < 0.001).
Fer-Me in vivo half-life (t1/2) in the rats’ bloodstream was determined using nonlinear regression (exponential decay) of concentration values quantified at appropriate time intervals after infusion, further validated by applying linear regression to the semi-logarithmic plot. The area under the concentration–time curves (AUC, μg∙mL^−1∙min) in rat bloodstreams or CSF, following Fer-Me intravenous administration or CA-OA NE nasal administration, were calculated using the trapezoidal method.
Following the nasal administration of CS-OA NE, the absolute bioavailability (F) values of Fer-Me and eugenol were calculated as the ratio of the nasal AUC to the intravenous AUC values measured in the bloodstream, normalized to the respective doses, according to Equation (3):(3) F=AUCnasal/AUCIV·doseIV/dosenasal GraphPad Prism version 7.0 (GraphPad Software, San Diego, CA, USA) was used for all calculations.

[2] = male, Sprague-Dawley, rat, in vivo
Protocol: as §1

[3] = cited from earlier work
[4] = cited from earlier work; remark: listed apart in the source
[5] = test system: several cell lines; details: cited from earlier work
[6] = Intravenous administration of Fer-Me to rats (bloodstream and CSF pharmacokinetics); format: in vivo, rat; details: rat, in vivo, iv
Protocol: Charles River laboratories, Calco, Italy) bloodstream and CSF. […] The sample size (4 rats/group) has been chosen based on our previous studies. The experimental procedures were approved by the Italian Ministry of Health and were performed in accordance with the European Communities Council Directive of September 2010 (2010/63/EU). According to the ARRIVE guidelines, all possible efforts were made to minimize animal pain and discomfort and to reduce the number of experimental subjects. Fer-Me solution (2.5 mg/mL final concentration, 15% v/v EtOH content) was prepared by first dissolving Fer-Me in EtOH and then adding this latter solution to a saline solution (0.9% NaCl). […] The aqueous phase was then subjected to a double extraction with 1 mL of H2O-saturated ethyl acetate. […] Data were acquired and processed through CLASS-VP Software; version 7.2.1 (Shimadzu Italia, Milan, Italy). The mobile phase was eluted under isocratic conditions (0.8 mL/min) and was constituted by a mixture of acetic acid in H2O (0.4% v/v) and MeOH, whose ratio was 40:60 (v/v). The UV-Vis detector was set at 320 nm for the detection of Fer-Me, its hydrolysis product Fer, and Caf-Me, which was utilized as an internal standard during blood sample extraction. […] The average recoveries were approximately 40% for Fer and 58% for Fer-Me. For this reason, the concentrations of these compounds were determined by their peak area ratio with respect to the internal standard (Caf-Me). […] Fer-Me in vivo half-life (t1/2) in the rats' bloodstream was determined using nonlinear regression (exponential decay) of concentration values quantified at appropriate time intervals after infusion, further validated by applying linear regression to the semi-logarithmic plot.

SMILES: C=CCc1ccc(O)c(OC)c1 [eugenol]
- bioavailability ([1]; male, Sprague-Dawley, 0.8 mg/kg, nasal CS-OA NE vs intravenous, dose-normalized, read-out: absolute bioavailability F (bloodstream)): 95%
- time at which CSF concentration decreased to zero (permanence in the CSF) ([1]; male, Sprague-Dawley): 120 min
- time within which plasma concentration decreased to zero ([1]; male, Sprague-Dawley): ≤ 90 min
- AUC ([1]; male, Sprague-Dawley, inhaled or intranasal, 0.8 mg/kg, read-out: AUC in CSF (converted)): 1060 ng·h/mL
- AUC ([1]; male, Sprague-Dawley, inhaled or intranasal, 0.8 mg/kg, read-out: AUC in the bloodstream (converted)): 111 ng·h/mL
- Cmax ([1]; male, Sprague-Dawley, inhaled or intranasal, 0.8 mg/kg, read-out: Cmax in CSF): 1050 ± 80 ng/mL
- Cmax ([1]; male, Sprague-Dawley, inhaled or intranasal, 0.8 mg/kg, read-out: Cmax in the bloodstream): 150 ± 10 ng/mL
- Tmax ([1]; male, Sprague-Dawley, inhaled or intranasal, 0.8 mg/kg, read-out: Tmax in CSF (converted)): 20 min
- Tmax ([1]; male, Sprague-Dawley, inhaled or intranasal, 0.8 mg/kg, read-out: Tmax in the bloodstream (converted)): 40 min
- dose-normalized CSF AUC of eugenol relative to Fer-Me [2]: about 16 times
- permanence in the rat CSF ([3]; in vivo): 50 min
- AUC in CSF ([3]; rat, eugenol 20 mg/kg i.v.): 56.1 ± 4.2 µg·min/mL
- Tmax in CSF ([3]; rat, eugenol 20 mg/kg i.v.): 10 min
- t1/2 in the bloodstream ([3]; rat, in vivo, iv, 20 mg/kg): about 20 min
- absolute bioavailability ([4]; eugenol oral administration): about 4%
- AUC in CSF ([4]; rat, oral dose of 500 mg/kg of eugenol): 30.97 ± 2.18 µg·min/mL
- concentration known to induce cytotoxicity [5]: 5000 µM

SMILES: COC(=O)/C=C/c1ccc(O)c(OC)c1 [Fer-Me, methyl ferulate]
- Tmax in CSF [6]: 20 min
- kinetic elimination constant (kel) ([6]; 10 mg/kg): 0.069 ± 0.003 min⁻¹
- CSF bioavailability (AUC) after nasal CS-OA NE relative to intravenous administration [1]: about 30 times
- absolute bioavailability F (bloodstream) [1]: 56%
- time at which CSF concentration decreased to zero (permanence in the CSF) [1]: 120 min
- time within which plasma concentration decreased to zero [1]: ≤ 90 min
- Tmax in CSF ([1]; inhaled or intranasal): 20 min
- Tmax in the bloodstream ([1]; inhaled or intranasal): 40 min
